Like-named read-outs stand apart in the source and are kept apart here.
Target: T1, human ghrelin receptor (GRLN, growth hormone secretagogue receptor, hGHS-R1a) (Homo sapiens, UniProt Q92847)
T1 construct: purchased PerkinElmer BioSignal #RBHGHSM, lot#1887; host or cells: HEK-293 cells, stably transfected (membranes)
Test: Competitive radioligand binding assay (ghrelin receptor), Method B1
Protocol: Multiscreen Harvest plates-GF/C (Millipore, #MAHFC1H60) • 4. […] Bottom seal (Millipore, #MATAH0P00) • 7. […] Binding Buffer: 25 mM Hepes (pH 7.4), 1 mM CaCl2, 5 mM MgCl2. 2.5 mM EDTA, 0.4% BSA
Competition experiments were performed in a 300 μl filtration assay format. • 1. 220 μL of membranes diluted in binding buffer • 2. 40 μL of compound diluted in binding buffer • 3.
Compounds were provided frozen on dry ice at a stock concentration of 10 mM diluted in 100% DMSO and stored at −80° C. until the day of testing. On the test day, compounds were allowed to thaw at rt overnight and then diluted in assay buffer according to the desired test concentrations. Under these conditions, the maximal final DMSO concentration in the assay was 0.1%.
Plates were sealed with TopSeal-A, vortexed gently and incubated at rt for 30 min. The reaction was arrested by filtering samples through Multiscreen Harvest plates (pre-soaked in 0.5% polyethyleneimine) using a Tomtec Harvester, washed 9 times with 500 μL of cold 50 mM Tris-HCl (pH 7.4, 4° C.), and then plates were air-dried in a fumehood for 30 min. A bottom seal was applied to the plates prior to the addition of 25 μL of MicroScint-0 to each well. Plates were than sealed with TopSeal-A and counted for 30 sec per well on a TopCount Microplate Scintillation and Luminescence Counter (PerkinElmer) using a count delay of 60 sec. Results were expressed as counts per minute (cpm).
Data were analyzed by GraphPad Prism (GraphPad Software, San Diego, Calif.) using a variable slope non-linear regression analysis. […] Dmax values were calculated using the following formula: […]

[1] = Ghrelin receptor binding activity, Method B1

T1 sequence (Q92847 whole entry): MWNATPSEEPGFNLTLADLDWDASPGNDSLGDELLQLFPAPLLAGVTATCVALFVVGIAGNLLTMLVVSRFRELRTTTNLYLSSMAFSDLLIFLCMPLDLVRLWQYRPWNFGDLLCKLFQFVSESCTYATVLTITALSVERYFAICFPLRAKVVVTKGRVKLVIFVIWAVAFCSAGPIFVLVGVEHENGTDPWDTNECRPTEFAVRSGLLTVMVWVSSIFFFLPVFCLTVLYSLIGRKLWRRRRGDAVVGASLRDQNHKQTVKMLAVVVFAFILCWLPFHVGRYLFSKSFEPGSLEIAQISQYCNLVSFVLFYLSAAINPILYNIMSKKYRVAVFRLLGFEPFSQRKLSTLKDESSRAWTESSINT

Ki [1] [nM]	IC50 [1] [nM]	SMILES	further results
100 to 500	–	CCC(C)[C@@H]1NC[C@@H](C)Oc2ccccc2CCCNC(=O)[C@@H](Cc2ccccc2)NC(=O)[C@H](C(C)O)N(C)C1=O (some centres unmarked) [Compound 1301]	–
> 500	–	CC(O)[C@H]1C(=O)N[C@H](Cc2ccccc2)C(=O)NC/C=C/c2ccccc2OCCN[C@@H](CO)C(=O)N1C (some centres unmarked) [Compound 1305]	–
> 500	–	CCC(C)[C@@H]1NCCOc2cccnc2CCCNC(=O)[C@@H](Cc2ccccc2)NC(=O)[C@H](C(C)O)N(C)C1=O (some centres unmarked) [Compound 1311]	–
10 to 100	10 to 100	CCC(C)[C@@H]1NC[C@@H](C)Oc2ccccc2/C=C/CNC(=O)[C@@H](Cc2ccccc2)NC(=O)[C@H](C(C)O)N(C)C1=O (some centres unmarked) [Compound 1313]	–
100 to 500	100 to 500	CCC(C)[C@@H]1NC[C@H](C)Oc2ccccc2/C=C/CNC(=O)[C@@H](Cc2ccccc2)NC(=O)[C@H](C(C)O)N(C)C1=O (some centres unmarked) [Compound 1314]	–
10 to 100	10 to 100	CC(O)[C@H]1C(=O)N[C@H](Cc2ccccc2)C(=O)NC/C=C/c2ccccc2OCCN[C@@H](C2CCCC2)C(=O)N1C (some centres unmarked) [Compound 1320]	–
10 to 100	–	CCC(C)[C@H]1C(=O)N(C)[C@@H](C(C)O)C(=O)N[C@H](Cc2ccccc2)C(=O)NC/C=C/c2ccccc2OCCN1C (some centres unmarked) [Compound 1323]	–
10 to 100	100 to 500	CCC(C)[C@@H]1NCCOc2ccccc2/C=C/CNC(=O)[C@@H](Cc2ccc(N)cc2)NC(=O)[C@H](C(C)O)N(C)C1=O (some centres unmarked) [Compound 1328]	–
10 to 100	100 to 500	CCC(C)[C@@H]1NCCOc2ccccc2/C=C/CNC(=O)[C@@H](Cc2c[nH]cn2)NC(=O)[C@H](C(C)O)N(C)C1=O (some centres unmarked) [Compound 1329]	–
10 to 100	100 to 500	CCC(C)[C@@H]1NCCOc2ccccc2/C=C/CNC(=O)[C@@H](Cc2ccncc2)NC(=O)[C@H](C(C)O)N(C)C1=O (some centres unmarked) [Compound 1330]	–
10 to 100	10 to 100	CCC(C)[C@@H]1NCCOc2ccccc2/C=C/CNC(=O)[C@@H](Cc2ccco2)NC(=O)[C@H](C(C)O)N(C)C1=O (some centres unmarked) [Compound 1331]	–
100 to 500	100 to 500	CCC(C)[C@@H]1NCCOc2ccccc2C[C@@H](O)CNC(=O)[C@@H](Cc2ccccc2)NC(=O)[C@H](C(C)O)N(C)C1=O (some centres unmarked) [Compound 1339]	–
–	–	CCC(C)[C@@H]1NCCOc2ccccc2CC[C@@H](C)NC(=O)[C@@H](Cc2ccccc2)NC(=O)[C@H](C(C)O)N(C)C1=O (some centres unmarked) [Compound 1342]	IC50: 1 to 10 nM; Ki: 1 to 10 nM
10 to 100	–	CCC(C)[C@@H]1NCCOc2cc(F)ccc2CC[C@H](C)NC(=O)[C@@H](Cc2ccccc2)NC(=O)[C@H](C(C)O)N(C)C1=O (some centres unmarked) [Compound 1344]	–
10 to 100	100 to 500	CC(O)[C@H]1C(=O)N[C@H](Cc2ccccc2)C(=O)N[C@@H](C)CCc2ccccc2OCCN[C@@H](C2CC2)C(=O)N1C (some centres unmarked) [Compound 1345]	–
–	–	CC[C@H](C)[C@@H]1NC/C=C/c2ccccc2CCCNC(=O)[C@@H](Cc2ccccc2)NC(=O)[C@H]([C@H](C)O)N(C)C1=O [Compound 1346]	IC50: > 500 nM; Ki: 100 to 500 nM
100 to 500	100 to 500	CCC(C)[C@@H]1N[C@H](C)COc2ccccc2CCCNC(=O)[C@@H](Cc2ccccc2)NC(=O)[C@H](C(C)O)N(C)C1=O (some centres unmarked) [Compound 1347]	–
100 to 500	> 500	CCC(C)[C@@H]1N[C@@H](C)COc2ccccc2CCCNC(=O)[C@@H](Cc2ccccc2)NC(=O)[C@H](C(C)O)N(C)C1=O (some centres unmarked) [Compound 1348]	–
10 to 100	–	CCC(C)[C@@H]1NCCOc2ccccc2CCC(C(F)(F)F)NC(=O)[C@@H](Cc2ccccc2)NC(=O)[C@H](C(C)O)N(C)C1=O (some centres unmarked) [Compound 1349]	–
–	10 to 100	CC(C)C1NCCOc2cc(F)ccc2C=CCNC(=O)C(C(C)c2ccccc2)NC(=O)C(C(C)O)N(C)C1=O (centres unmarked) [Compound 1689]	–

Ki [1] [nM]	IC50 [1] [nM]	SMILES	further results
–	> 500	CCCC1CCc2ccccc2OCCNC(C(C)C)C(=O)N(C)C(C(C)O)C(=O)NC(Cc2ccccc2)C(=O)N1 (centres unmarked) [Compound 1694]	–
–	100 to 500	CC(C)C1CCc2ccccc2OCCNC(C(C)C)C(=O)N(C)C(C(C)O)C(=O)NC(Cc2ccccc2)C(=O)N1 (centres unmarked) [Compound 1695]	–
–	> 500	CCCC1CCc2ccccc2OCCNC(C(C)C)C(=O)N(C)C(C(C)O)C(=O)NC(Cc2cccc(F)c2)C(=O)N1 (centres unmarked) [Compound 1696]	–
–	100 to 500	CCCC1CCc2ccccc2OCCNC(C(C)C)C(=O)N(C)C(C(C)O)C(=O)NC(Cc2c[nH]c3ccccc23)C(=O)N1 (centres unmarked) [Compound 1697]	–
–	10 to 100	CC(C)C1CCc2ccccc2OCCNC(C(C)C)C(=O)N(C)C(C(C)O)C(=O)NC(Cc2c[nH]c3ccccc23)C(=O)N1 (centres unmarked) [Compound 1698]	–
–	100 to 500	CCC1CCc2ccc(F)cc2OC(C)CNC(C2(C)CC2)C(=O)N(C)C(C(C)O)C(=O)NC(Cc2c[nH]c3ccccc23)C(=O)N1 (centres unmarked) [Compound 1706]	–
–	100 to 500	CC(C)[C@@H]1NCCOc2ccccc2CC[C@H](C(C)C)NC(=O)[C@@H](Cc2cccc(F)c2)NC(=O)[C@H](C(C)O)N(C)C1=O (some centres unmarked) [Compound 1708]	–
–	10 to 100	CC[C@@H]1C#Cc2ccc(Cl)cc2OCCN[C@@H](C(C)C)C(=O)N(C)[C@@H](C(C)O)C(=O)N[C@H](Cc2c[nH]c3ccccc23)C(=O)N1 (some centres unmarked) [Compound 1709]	–
–	1 to 10	CCC(C)[C@@H]1NCCO[C@H]2CCC[C@H]2CCCNC(=O)[C@@H](Cc2ccc(Cl)cc2)NC(=O)[C@H](C(C)O)N(C)C1=O (some centres unmarked) [Compound 1714]	–
–	1 to 10	CCC(C)[C@@H]1NCCO[C@H]2CCCC[C@H]2CCCNC(=O)[C@@H](Cc2ccc(Cl)cc2)NC(=O)[C@H](C(C)O)N(C)C1=O (some centres unmarked) [Compound 1715]	–
–	100 to 500	CC[C@@H]1CCc2ccc(F)cc2O[C@H](C)CN[C@@H](C2(C)CC2)C(=O)N(C)[C@@H](C(C)O)C(=O)N[C@H](Cc2cccc(F)c2)C(=O)N1 (some centres unmarked) [Compound 1721]	–
–	10 to 100	CC[C@@H]1CCc2c(F)cccc2OCCN[C@@H](C(C)C)C(=O)N(C)[C@@H](C(C)O)C(=O)N[C@H](Cc2ccccc2)C(=O)N1 (some centres unmarked) [Compound 1722]	–
–	10 to 100	CC[C@@H]1CCc2c(F)cccc2OCCN[C@@H](C(C)C)C(=O)N(C)[C@@H](C(C)O)C(=O)N[C@H](Cc2cccc(F)c2)C(=O)N1 (some centres unmarked) [Compound 1724]	–
–	> 500	CC[C@@H]1CCc2ccc(OC)cc2OCCN[C@@H](C(C)C)C(=O)N(C)[C@@H](C(C)O)C(=O)N[C@H](Cc2c[nH]c3ccccc23)C(=O)N1 (some centres unmarked) [Compound 1727]	–
–	10 to 100	CC(O)[C@H]1C(=O)N[C@H](Cc2ccc(Cl)cc2)C(=O)NC/C=C/c2ccccc2OCCN[C@@H](C2CC2)C(=O)N1C (some centres unmarked) [Compound 1728]	–
–	100 to 500	CC(C)C[C@@H]1NCCOc2ccccc2/C=C/CNC(=O)[C@@H](Cc2ccc(Cl)cc2)NC(=O)[C@H](C(C)O)N(C)C1=O (some centres unmarked) [Compound 1731]	–
–	100 to 500	CC(O)[C@H]1C(=O)N[C@H](Cc2ccc(Cl)cc2)C(=O)NC/C=C/c2ccccc2OCCN[C@@H](CC(C)(C)C)C(=O)N1C (some centres unmarked) [Compound 1733]	–
–	10 to 100	CCC(C)C1NCCOc2ccccc2C=CCNC(=O)C(Cc2ccc(OC)cc2)NC(=O)C(C(C)O)N(C)C1=O (centres unmarked) [Compound 1735]	–
–	10 to 100	CCC(C)C1NCCOc2ccccc2C=CCNC(=O)C(Cc2ccc(C)cc2)NC(=O)C(C(C)O)N(C)C1=O (centres unmarked) [Compound 1736]	–
–	> 500	CC(O)[C@H]1C(=O)N[C@H](Cc2ccc(Cl)cc2)C(=O)N[C@@H](C)CCc2ccccc2O[C@H](C)CN[C@@H](C2CC2)C(=O)N1C (some centres unmarked) [Compound 1741]	–

Reference: patent publication US20110105389A1 (priority 2009, published 2011)
